Read-outs that look alike come from different tables or passages of the source.
What was measured:
TNF-α [1] = assay: In-vitro whole cell assay for TNF-α inhibition (LPS-stimulated PBMC, ELISA); type: cell-based; conditions: TNF-α by ELISA
Procedure: Freshly obtained venous blood was anticoagulated with heparin, diluted with an equal volume of phosphate buffered saline (“PBS”) and placed in a sterile tube or other container. Aliquots (30 mL) of this mixture were transferred to centrifuge tubes, which were underlaid with Ficoll-Hypaque (15 mL). The prepared tubes were centrifuged at 400×g, without braking, for 30 min at room temperature. Approximately ½ to ⅔ of the platelet layer above the mononuclear cell band was removed with a pipette. The majority of the mononuclear cell layer was carefully removed using a pipette and these PBMC's were diluted with PBS and spun at 600×g for 15 min. The resulting PBMC's were washed with another portion of PBS and spun at 400×g for 10 min at room temperature. The recovered pellets were diluted in low endotoxin RPMI/1% FCS culture medium, and gave a cell concentration of 0.5-2.0×10^6 PMBC/ mL. A small volume of the suspension was removed for counting on a hemocytometer and the remaining preparation was centrifuged at 200×g for 15 min at room temperature. The recovered pelleted PMBC's were resuspended in RPMI/1% FCS to a concentration of 1.67×10^6/mL.
To run the assay, the PBMC suspension (180 μL) was transferred to duplicate wells of a 96-well flat-bottom microtiter plate and incubated for 1 h at 37° C. A solution of test compound (10 μL: prepared at 20× the desired final concentration) was added to each well and the plate was incubated for 1 h at 37° C. A solution (10 μL) of LPS in RPMI/1% FCS (200 ng/mL) was added and the wells were incubated overnight at 37° C. The supernate (100 μL) was removed from each well and diluted with RPMI/1% FCS (400 μL). The samples were analyzed for TNF-α using a commercial ELISA kit (Genzyme).

TNF-α [2] = assay: In vivo rodent assay for inhibition of LPS-induced TNF-α production; set-up: species or system Mice (BALB/cJ females); conditions: 10 mg/kg oral; for inhibition in vivo at 10 mg/kg: Mus musculus, po
Procedure: Mice (BALB/cJ females, Jackson Laboratories) or rats (Lewis males, Charles River) were fasted for 30 min. The animals were dosed orally on a mg/kg basis at a range of times prior to being injected intraperitoneally with LPS at 1 mg/kg and returned to their cages for 1 h. Animals were anesthetized by CO2, exsanguinated by cardiac puncture and whole blood collected (0.1-0.7 mL). The blood was allowed to clot and serum was transferred to a centrifuge tube. This sample was centrifuged, and serum was collected, aliquoted and frozen at −80° C. Samples were tested by commercial ELISA's for TNF-α (Endogen for mouse TNF-α and Biosource for rat TNF-α).

[3] = 0.5 h, 0.5 h, read-out: Mouse 10 mg/kg % inhib 0.5 h
[4] = 2 h, 2 h, read-out: Mouse 10 mg/kg % inhib 2 h

Row | Compound | IC50 (TNF-α [1]) [nM] | inhibition in vivo at 10 mg/kg (TNF-α [2]; [3]) [%] | other results
1 | COC(=O)c1c(-c2ccc(F)cc2)c(-c2ccncc2)c(C2=CCNCC2)n1C [Cpd 7, 3-(4-Fluorophenyl)-1-methyl-4-(4-pyridinyl)-5-(1,2,3,6-tetrahydro-4-pyridinyl)-1H-pyrrole-2-carboxylic acid methyl ester] | 72 | 96 | 
2 | COC(=O)c1c(-c2ccc(F)cc2)c(-c2ccncc2)c(N2CCNCC2)n1C [Cpd 8, 3-(4-Fluorophenyl)-1-methyl-5-(1-piperazinyl)-4-(4-pyridinyl)-1H-pyrrole-2-carboxylic acid methyl ester] | 33 | 73 | 
3 | COC(=O)c1c(-c2ccc(F)cc2)c(-c2ccncc2)c(N2CCN(S(C)(=O)=O)CC2)n1C [Cpd 12, 3-(4-Fluorophenyl)-1-methyl-5-[4-(methylsulfonyl)-1-piperazinyl]-4-(4-pyridinyl)-1H-pyrrole-2-carboxylic acid methyl ester] | 5860 | -29 | 
4 | CCNC(=O)N1CCN(c2c(-c3ccncc3)c(-c3ccc(F)cc3)c(C(=O)OC)n2C)CC1 [Cpd 13, 5-[4-[(Ethylamino)carbonyl]-1-piperazinyl]-3-(4-fluorophenyl)-1-methyl-4-(4-pyridinyl)-1H-pyrrole-2-carboxylic acid methyl ester] | 2920 | -38 | 
5 | COC(=O)c1c(-c2ccc(F)cc2)c(-c2ccncc2)c(/N=C/N(C)C)n1C [Cpd 15] | 5 | 6 | inhibition in vivo at 10 mg/kg (TNF-α [2]; [4]): -21%
6 | CCOC(=O)c1c(-c2ccc(F)cc2)c(-c2ccncc2)c(CCCO)n1C [Cpd 17, 3-(4-Fluorophenyl)-5-(3-hydroxypropyl)-1-methyl-4-(4-pyridinyl)-1H-pyrrole-2-carboxylic acid ethyl ester] | 186 |  | 
7 | CCOC(=O)c1c(-c2ccc(F)cc2)c(-c2ccncc2)c(CCCN2CCOCC2)n1C [Cpd 19, 3-(4-Fluorophenyl)-1-methyl-5-[3-(4-morpholinyl)propyl]-4-(4-pyridinyl)-1H-pyrrole-2-carboxylic acid ethyl ester] | 756 | 34 | 
8 | COC(=O)C1Cn2cc(-c3ccncc3)c(-c3ccc(F)cc3)c2C1=O (stereo not drawn) [Cpd 21, 7-(4-Fluorophenyl)-2,3-dihydro-1-oxo-6-(4-pyridinyl)-1H-pyrrolizine-2-carboxylic acid methyl ester] | 29 | 44.7 | 
9 | O=C1CCn2cc(-c3ccncc3)c(-c3ccc(F)cc3)c21 [Cpd 22, 7-(4-Fluorophenyl)-2,3-dihydro-6-(4-pyridinyl)-1H-pyrrolizin-1-one] | 138 | 63 | inhibition in vivo at 10 mg/kg (TNF-α [2]; [4]): -3%
10 | COC(=O)C1CCn2c(NCCN3CCOCC3)c(-c3ccncc3)c(-c3ccc(F)cc3)c2C1=O (stereo not drawn) [Cpd 23, 1-(4-Fluorophenyl)-5,6,7,8-tetrahydro-3-[[2-(4-morpholinyl)ethyl]amino]-8-oxo-2-(4-pyridinyl)-7-indolizinecarboxylic acid methyl ester] | 77 | 71 | 
11 | COC(=O)CCCn1c(NCCN2CCOCC2)c(-c2ccncc2)c(-c2ccc(F)cc2)c1C(=O)OC [Cpd 23a] | 29 |  | 
12 | O=C1CCCn2c(NCCN3CCOCC3)c(-c3ccncc3)c(-c3ccc(F)cc3)c21 [Cpd 24, 1-(4-Fluorophenyl)-6,7-dihydro-3-[[2-(4-morpholinyl)ethyl]amino]-2-(4-pyridinyl)-8(5H)-indolizinone] | 2560 | 51 | 
13 | OCc1[nH]cc(-c2ccc(F)cc2)c1-c1ccncc1 [Cpd 26, 4-(4-Fluorophenyl)-3-(4-pyridinyl)-1H-pyrrole-2-methanol] | 101 | -72 | 
14 | CON(C)C(=O)c1c(-c2ccc(F)cc2)c(-c2ccncc2)cn1C [Cpd 37, 3-(4-Fluorophenyl)-N-methoxy-N,1-dimethyl-4-(4-pyridinyl)-1H-pyrrole-2-carboxamide] | 5840 |  | 
15 | CC(=O)c1c(-c2ccc(F)cc2)c(-c2ccncc2)cn1C [Cpd 39, 1-[3-(4-Fluorophenyl)-1-methyl-4-(4-pyridinyl)-1H-pyrrol-2-yl]ethanone] | 597 |  | 
16 | CC(O)c1c(-c2ccc(F)cc2)c(-c2ccncc2)cn1C (stereo not drawn) [Cpd 40, 3-(4-Fluorophenyl)-[…], 1-dimethyl-4-(4-pyridinyl)-1H-pyrrole-2-methanol] | 1450 |  | 
17 | O=C1OCCn2cc(-c3ccncc3)c(-c3ccc(F)cc3)c21 [Cpd 46, 8-(4-Fluorophenyl)-3,4-dihydro-7-(4-pyridinyl)-1H-pyrrolo[2,1-c][1,4]oxazin-1-one] | 160 |  | 
18 | CCCc1c(-c2ccnc(N[C@@H](C)c3ccccc3)n2)c(-c2ccc(F)cc2)cn1C(=O)OC(C)(C)C [Cpd 49] |  | -79 | 
19 | COC(=O)c1c(-c2ccc(F)cc2)c(-c2ccncc2)c(N2CCC(NC(=O)OC(C)(C)C)C2)n1C (stereo not drawn) [Cpd 110] | 1660 |  | 
20 | Cn1c(C(O)c2ccccc2)c(-c2ccc(F)cc2)c(-c2ccncc2)c1N1CCNCC1 (stereo not drawn) [Cpd 117] | 660 |  | 
21 | COC(=O)c1c(-c2ccc(F)cc2)c(-c2ccncc2)c(NCCN2CCCC2)n1C [Cpd 118] | 1390 |  | 
22 | COC(=O)c1c(-c2ccc(F)cc2)c(-c2ccncc2)c(NC2CCN(Cc3ccccc3)CC2)n1C [Cpd 120] | 1310 |  | 
23 | CCCCNCc1c(-c2ccncc2)c(-c2ccc(F)cc2)cn1C [Cpd 123] | 1080 |  | 
24 | COC(=O)c1c(-c2ccc(F)cc2)c(-c2ccncc2)c(N2CCN(C(C)C)CC2)n1C [Cpd 126] | 1980 |  | 

Row | Compound | IC50 (TNF-α [1]) [nM] | inhibition in vivo at 10 mg/kg (TNF-α [2]; [3]) [%] | other results
25 | CCCN1CCN(c2c(-c3ccncc3)c(-c3ccc(F)cc3)c(C(=O)OC)n2C)CC1 [Cpd 127] | 901 |  | 
26 | COC(=O)c1c(-c2ccc(F)cc2)c(-c2ccncc2)c(N2CCN(CC3CCCCC3)CC2)n1C [Cpd 130] | 573 |  | 
27 | COC(=O)c1c(-c2ccc(F)cc2)c(-c2ccncc2)c(NCCNC(=O)OC(C)(C)C)n1C [Cpd 132] | 1640 |  | 
28 | COC(=O)c1c(-c2ccc(F)cc2)c(-c2ccncc2)c(NCCNC(C)=O)n1C [Cpd 135] | 1690 |  | 
29 | COC(=O)C1CCn2c(I)c(-c3ccncc3)c(-c3ccc(F)cc3)c2C1=O (stereo not drawn) [Cpd 136] |  | 15 | 
30 | COC(=O)c1c(-c2ccc(F)cc2)c(-c2ccncc2)c(-c2ccncc2)n1C [Cpd 137] |  | 51 | 
31 | COC(=O)c1c(-c2ccc(F)cc2)c(-c2ccncc2)c(NCCN2CCNCC2)n1C [Cpd 140] |  | 77 | 
32 | COC(=O)c1c(-c2ccc(F)cc2)c(-c2ccncc2)c(NC(C)=O)n1C [Cpd 142] | 1490 |  | 
33 | COC(=O)c1c(-c2ccc(F)cc2)c(-c2ccncc2)cn1CCN(C)C [Cpd 146] |  | -32 | 
34 | COC(=O)c1c(-c2ccc(F)cc2)c(-c2ccncc2)c(NCCCN2CCOCC2)n1C [Cpd 149] |  | 64 | 
35 | COC(=O)CCn1c(C#CCCO)c(-c2ccncc2)c(-c2ccc(F)cc2)c1C(=O)OC [Cpd 150] | 5280 |  | 
36 | Cn1c(CO)c(-c2ccc(F)cc2)c(-c2ccncc2)c1N1CCN(C(=O)OC(C)(C)C)CC1 [Cpd 151] |  | 83 | 
37 | CCCn1c(NCCN2CCOCC2)c(-c2ccncc2)c(-c2ccc(F)cc2)c1C(=O)OC [Cpd 153] | 589 |  | 
38 | COC(=O)c1c(-c2ccc(F)cc2)c(-c2ccncc2)c(NCCc2ccncc2)n1C [Cpd 154] | 145 |  | 
39 | CC(=O)N1CCN(c2c(-c3ccncc3)c(-c3ccc(F)cc3)c(-c3nnco3)n2C)CC1 [Cpd 157] |  | 19 | 
40 | N#Cc1[nH]cc(-c2ccncc2)c1-c1ccc(F)cc1 [Cpd 158] | 47 |  | 
41 | COC(=O)c1c(-c2ccc(F)cc2)c(-c2ccncc2)c(N(C)CCN2CCSCC2)n1C [Cpd 162] | 183 |  | 
42 | COC(=O)c1c(-c2ccncc2)c(-c2ccc(F)cc2)c(N(C)CCN2CCOCC2)n1C [Cpd 164] | 3510 |  | 
43 | COC(=O)c1c(-c2ccc(F)cc2)c(-c2ccncc2)cn1CCO [Cpd 165] | 692 |  | 
44 | COC(=O)c1c(-c2ccc(F)cc2)c(-c2ccncc2)c(Nc2ccc3c(c2)N(C(C)=O)CC3)n1C [Cpd 166] | 650 |  | 
45 | Cn1cc(-c2ccncc2)c(-c2ccc(F)cc2)c1C#N [Cpd 169] |  |  | Mouse 10 mg/kg % inhib 2 h (TNF-α [2]; 2 h, 10 mg/kg): 49%
46 | Cn1c(C#N)c(-c2ccc(F)cc2)c(-c2ccncc2)c1NCCN1CCOCC1 [Cpd 171] | 351 |  | 
47 | COC(=O)c1c(-c2ccc(F)cc2)c(-c2ccncc2)c(Nc2cccc(NC(C)=O)c2)n1C [Cpd 174] | 21 |  | 

— patent US20050043331A1, “Substituted 3-(2,5-disubstituted)pyridyl-4-aryl pyrroles for treating inflammatory diseases” (priority 2002, published 2005)
